Reference: patent publication US20230225988A1, “ANTIVIRAL USE OF CALIXARENES” (CEBINA GmbH, priority 2020, published 2023)
Like-named read-outs stand apart in the source and are kept apart here.

Assays:
[1] = test system: influenza H1N1; type: cell-based; settings: CX-1 500 μM apical
[2] = test system: SARS-CoV-2; assay: PCR quantification of SARS-CoV-2 viral particles in supernatants of infected Vero E6 cells; settings: for viral particle number, Sample #1 / viral particle number, Sample #2 / viral particle number, Sample #3: Vero E6, MOI 0.01; for viral particle number, average: average of triplicate
[3] = test system: SARS-CoV-2; assay: Microscopic examination of the cytopathogenic effect in SARS-CoV-2 infected Vero E6 cells
[4] = test system: influenza H1N1; type: cell-based; settings: day 4 post infection, CX-1 500 μM versus buffer treated cells (FIG. 5)
[5] = test system: human nasal epithelial cells (MucilAir Pool); settings: non-infected cells, LDH release from basal wash
[6] = test system: HCoV 229E; settings: Geller et al., Antiviral Research 2010; cited from earlier work
[7] = 24 h post-infection, versus buffer treated cells (FIG. 4 panel A)
[8] = 48 h post infection, versus buffer treated cells (FIG. 4 panel B)
[9] = CX-1 500 μM, 24 h post-infection, prophylactic setting
[10] = CX-1 500 μM, 48 h post-infection, prophylactic setting

Molecule	decrease in viral genome copy [1, 7]	reduction in viral genome copy [1, 7]	decrease in viral genome copy [1, 8]	reduction in viral genome copy [1, 8]	reduction in viral genome copy number ([2]; 50 μM CX-1, preventive setting (FIG. 3))	viral particle number, Sample #1 [2, 9]	viral particle number, Sample #2 [2, 9]	viral particle number, Sample #3 [2, 9]	viral particle number, average [2, 9]	viral particle number, Sample #1 [2, 10]	viral particle number, Sample #2 [2, 10]	viral particle number, Sample #3 [2, 10]	viral particle number, average [2, 10]	potency (reduction in viral particles) ([2]; CX-1 500 μM, 48 h post-infection, prophylactic setting, versus virus only)	reduction in viral genome copy number ([2]; lower dilutions of CX-1, preventive setting, versus infected non-treated control (FIG. 3))	protection of infected cells from dying (cytopathogenic effect, microscopy) ([3]; prophylactic setting, 500, 100 or 20 μM, 48 h post infection (FIG. 1))	protection of infected cells from dying (cytopathogenic effect, microscopy) ([3]; therapeutic setting, CX-1 added after 30 min infection, 48 h post infection (FIG. 2))	cilia beating frequency [4]	cytotoxicity [5]	activity against HCoV 229E [6]
O=S(=O)(O)c1cc2c(O)c(c1)Cc1cc(S(=O)(=O)O)cc(c1O)Cc1cc(S(=O)(=O)O)cc(c1O)Cc1cc(S(=O)(=O)O)cc(c1O)C2 [CX-1, 5,11,17,23-sulfonato-25,26,27,28-tetrahydroxycalix[4]arene]	−0.9 log	88%	~0.8 log	80.5%	30%	0.00 viral particle number/μl	0.00 viral particle number/μl	1.48 viral particle number/μl	0.49 viral particle number/μl	11.10 viral particle number/μl	15.00 viral particle number/μl	8.63 viral particle number/μl	11.57 viral particle number/μl	95%	over 90%	significantly protected from dying	significantly protected from dying	significantly higher	no cytotoxicity	
O=S(=O)(O)c1cc2c(O)c(c1)Cc1cc(S(=O)(=O)O)cc(c1O)Cc1cc(S(=O)(=O)O)cc(c1O)Cc1cc(S(=O)(=O)O)cc(c1O)C2 [C[4]S, tetra-para-sulfonato-calix[4]arene]																				only very weak activity
1,3-bis(bithiazolyl)-tetra-para-sulfonato-calix[4]arene [C[4]S-BTZ]																				very effective
